Tests used:
rodent = settings: in vivo; cited from earlier work
[1] = test system: mRNA expressed from the genes (A) to (D) in rat liver; experiment: Behavior of genes (mRNA expression level, oligo-DNA microarray) in rat liver after 28-day oral administration; type: in vivo
How it was run: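 Groups of four male F344 SPF rats aged 5 weeks are gavaged once a day for 28 days with test chemical in solvent or with solvent alone at equal volume. Total RNA comes from liver taken on day 28. Fold change of 1.5 or 1/1.5 versus control, directionally consistent, defines significance.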

liver = settings: in vivo; cited from earlier work
[2] = gene group (A), Unigene No. Rn.167075, mRNA vs vehicle control group
[3] = gene group (C), Unigene No. Rn.120914, mRNA vs vehicle control group
[4] = (C), Unigene Rn.120914, defined direction +, rat liver, oral once daily 28 days

Compound: Cc1c(N)cccc1N [TS005, 2,6-Diaminotoluene]
- Carcinogenicity (rodent): C−
- Behavior of gene caused by administration of chemical substance, Gene No. 4846 ([1]; gene group (A), Unigene No. Rn.144554, mRNA vs vehicle control group): −
- Behavior of gene caused by administration of chemical substance, Gene No. 2026 [1, 2]: −
- Behavior of gene caused by administration of chemical substance, Gene No. 4218 [1, 2]: −
- Behavior of gene caused by administration of chemical substance, Gene No. 6182 ([1]; gene group (A), Unigene No. Rn.5834, mRNA vs vehicle control group): −
- Behavior of gene caused by administration of chemical substance, Gene No. 5600 ([1]; gene group (A), Unigene No. Rn.9836, mRNA vs vehicle control group): −
- Behavior of gene caused by administration of chemical substance, Gene No. 1494 ([1]; gene group (B), Unigene No. Rn.1430, mRNA vs vehicle control group): −
- Behavior of gene caused by administration of chemical substance, Gene No. 2045 ([1]; gene group (B), Unigene No. Rn.19329, mRNA vs vehicle control group): −
- Behavior of gene caused by administration of chemical substance, Gene No. 2203 ([1]; gene group (B), Unigene No. Rn.21240, mRNA vs vehicle control group): −
- Behavior of gene caused by administration of chemical substance, Gene No. 533 ([1]; gene group (C), Unigene No. Rn.106184, mRNA vs vehicle control group): −
- Behavior of gene caused by administration of chemical substance, Gene No. 725 ([1]; gene group (C), Unigene No. Rn.108075, mRNA vs vehicle control group): −
- Behavior of gene caused by administration of chemical substance, Gene No. 1163 ([1]; gene group (C), Unigene No. Rn.11766, mRNA vs vehicle control group): −
- Behavior of gene caused by administration of chemical substance, Gene No. 4973 ([1]; gene group (C), Unigene No. Rn.118529, mRNA vs vehicle control group): −
- Behavior of gene caused by administration of chemical substance, Gene No. 4095 ([1]; gene group (C), Unigene No. Rn.119024, mRNA vs vehicle control group): −
- Behavior of gene caused by administration of chemical substance, Gene No. 1334 [1, 3]: −
- Behavior of gene caused by administration of chemical substance, Gene No. 6620 [1, 3]: −
- Behavior of gene caused by administration of chemical substance, Gene No. 6303 ([1]; gene group (C), Unigene No. Rn.123063, mRNA vs vehicle control group): −
- Behavior of gene caused by administration of chemical substance, Gene No. 5878 ([1]; gene group (C), Unigene No. Rn.143213, mRNA vs vehicle control group): −
- Behavior of gene caused by administration of chemical substance, Gene No. 1131 ([1]; gene group (C), Unigene No. Rn.144946, mRNA vs vehicle control group): +
- Behavior of gene caused by administration of chemical substance, Gene No. 1562 ([1]; gene group (C), Unigene No. Rn.14744, mRNA vs vehicle control group): −
- Behavior of gene caused by administration of chemical substance, Gene No. 1741 ([1]; gene group (C), Unigene No. Rn.1647, mRNA vs vehicle control group): −
- Behavior of gene caused by administration of chemical substance, Gene No. 893 ([1]; gene group (C), Unigene No. Rn.164817, mRNA vs vehicle control group): −
- Behavior of gene caused by administration of chemical substance, Gene No. 6026 ([1]; gene group (C), Unigene No. Rn.167685, mRNA vs vehicle control group): −
- Behavior of gene caused by administration of chemical substance, Gene No. 154 ([1]; gene group (C), Unigene No. Rn.185941, mRNA vs vehicle control group): −
- Behavior of gene caused by administration of chemical substance, Gene No. 1993 ([1]; gene group (C), Unigene No. Rn.18728, mRNA vs vehicle control group): −
- Behavior of gene caused by administration of chemical substance, Gene No. 813 ([1]; gene group (C), Unigene No. Rn.201760, mRNA vs vehicle control group): −
- Behavior of gene caused by administration of chemical substance, Gene No. 2494 ([1]; gene group (C), Unigene No. Rn.23969, mRNA vs vehicle control group): −
- Behavior of gene caused by administration of chemical substance, Gene No. 2546 ([1]; gene group (C), Unigene No. Rn.24561, mRNA vs vehicle control group): −
- Behavior of gene caused by administration of chemical substance, Gene No. 3776 ([1]; gene group (C), Unigene No. Rn.43232, mRNA vs vehicle control group): −
- Behavior of gene caused by administration of chemical substance, Gene No. 3929 ([1]; gene group (C), Unigene No. Rn.4620, mRNA vs vehicle control group): −
- Behavior of gene caused by administration of chemical substance, Gene No. 1119 ([1]; gene group (C), Unigene No. Rn.9757, mRNA vs vehicle control group): −
- Behavior of gene caused by administration of chemical substance, Gene No. 6742 ([1]; gene group (C), Unigene No. Rn.9779, mRNA vs vehicle control group): −
- Behavior of gene caused by administration of chemical substance, Gene No. 5634 ([1]; gene group (C), Unigene No. Rn.9862, mRNA vs vehicle control group): −
- Behavior of gene caused by administration of chemical substance, Gene No. 5726 ([1]; gene group (D), Unigene No. Rn.9939, mRNA vs vehicle control group): −
- Liver carcinogenicity (liver): Cr−

Compound: c1ccc2ncccc2c1 [TS006, Quinoline]
- Carcinogenicity (rodent): C+
- Behavior of gene caused by administration of chemical substance, Gene No. 4846 ([1]; (A), Unigene Rn.144554, defined direction +, rat liver, oral once daily 28 days): +
- Behavior of gene caused by administration of chemical substance, Gene No. 4218 ([1]; (A), Unigene Rn.167075, defined direction +, rat liver, oral once daily 28 days, significant = 1.5 times or more or 1/1.5 or less of control): −
- Behavior of gene caused by administration of chemical substance, Gene No. 2026 ([1]; (A), Unigene Rn.167075, defined direction −, rat liver, oral once daily 28 days): +
- Behavior of gene caused by administration of chemical substance, Gene No. 6182 ([1]; (A), Unigene Rn.5834, defined direction +, rat liver, oral once daily 28 days): −
- Behavior of gene caused by administration of chemical substance, Gene No. 5600 ([1]; (A), Unigene Rn.9836, defined direction +, rat liver, oral once daily 28 days): −
- Behavior of gene caused by administration of chemical substance, Gene No. 1494 ([1]; (B), Unigene Rn.1430, defined direction −, rat liver, oral once daily 28 days): +
- Behavior of gene caused by administration of chemical substance, Gene No. 2045 ([1]; (B), Unigene Rn.19329, defined direction +, rat liver, oral once daily 28 days): −
- Behavior of gene caused by administration of chemical substance, Gene No. 2203 ([1]; (B), Unigene Rn.21240, defined direction +, rat liver, oral once daily 28 days): −
- Behavior of gene caused by administration of chemical substance, Gene No. 533 ([1]; (C), Unigene Rn.106184, defined direction +, rat liver, oral once daily 28 days): −
- Behavior of gene caused by administration of chemical substance, Gene No. 725 ([1]; (C), Unigene Rn.108075, defined direction −, rat liver, oral once daily 28 days): −
- Behavior of gene caused by administration of chemical substance, Gene No. 1163 ([1]; (C), Unigene Rn.11766, defined direction +, rat liver, oral once daily 28 days): −
- Behavior of gene caused by administration of chemical substance, Gene No. 4973 ([1]; (C), Unigene Rn.118529, defined direction −, rat liver, oral once daily 28 days): −
- Behavior of gene caused by administration of chemical substance, Gene No. 4095 ([1]; (C), Unigene Rn.119024, defined direction −, rat liver, oral once daily 28 days): −
- Behavior of gene caused by administration of chemical substance, Gene No. 1334 [1, 4]: −
- Behavior of gene caused by administration of chemical substance, Gene No. 6620 [1, 4]: −
- Behavior of gene caused by administration of chemical substance, Gene No. 6303 ([1]; (C), Unigene Rn.123063, defined direction −, rat liver, oral once daily 28 days): −
- Behavior of gene caused by administration of chemical substance, Gene No. 5878 ([1]; (C), Unigene Rn.143213, defined direction −, rat liver, oral once daily 28 days): −
- Behavior of gene caused by administration of chemical substance, Gene No. 1131 ([1]; (C), Unigene Rn.144946, defined direction −, rat liver, oral once daily 28 days): −
- Behavior of gene caused by administration of chemical substance, Gene No. 1562 ([1]; (C), Unigene Rn.14744, defined direction −, rat liver, oral once daily 28 days): −
- Behavior of gene caused by administration of chemical substance, Gene No. 1741 ([1]; (C), Unigene Rn.1647, defined direction −, rat liver, oral once daily 28 days): −
- Behavior of gene caused by administration of chemical substance, Gene No. 893 ([1]; (C), Unigene Rn.164817, defined direction +, rat liver, oral once daily 28 days): −
- Behavior of gene caused by administration of chemical substance, Gene No. 6026 ([1]; (C), Unigene Rn.167685, defined direction −, rat liver, oral once daily 28 days): −
- Behavior of gene caused by administration of chemical substance, Gene No. 154 ([1]; (C), Unigene Rn.185941, defined direction −, rat liver, oral once daily 28 days): −
- Behavior of gene caused by administration of chemical substance, Gene No. 1993 ([1]; (C), Unigene Rn.18728, defined direction −, rat liver, oral once daily 28 days): −
- Behavior of gene caused by administration of chemical substance, Gene No. 813 ([1]; (C), Unigene Rn.201760, defined direction +, rat liver, oral once daily 28 days): +
- Behavior of gene caused by administration of chemical substance, Gene No. 2494 ([1]; (C), Unigene Rn.23969, defined direction +, rat liver, oral once daily 28 days): −
- Behavior of gene caused by administration of chemical substance, Gene No. 2546 ([1]; (C), Unigene Rn.24561, defined direction −, rat liver, oral once daily 28 days): −
- Behavior of gene caused by administration of chemical substance, Gene No. 3776 ([1]; (C), Unigene Rn.43232, defined direction −, rat liver, oral once daily 28 days): −
- Behavior of gene caused by administration of chemical substance, Gene No. 3929 ([1]; (C), Unigene Rn.4620, defined direction +, rat liver, oral once daily 28 days): −
- Behavior of gene caused by administration of chemical substance, Gene No. 1119 ([1]; (C), Unigene Rn.9757, defined direction +, rat liver, oral once daily 28 days): −
- Behavior of gene caused by administration of chemical substance, Gene No. 6742 ([1]; (C), Unigene Rn.9779, defined direction +, rat liver, oral once daily 28 days): −
- Behavior of gene caused by administration of chemical substance, Gene No. 5634 ([1]; (C), Unigene Rn.9862, defined direction −, rat liver, oral once daily 28 days): −
- Behavior of gene caused by administration of chemical substance, Gene No. 5726 ([1]; (D), Unigene Rn.9939, defined direction −, rat liver, oral once daily 28 days): −
- Liver carcinogenicity (liver): Cr+

— US20110039721A1, “METHOD FOR PREDICTION ABOUT CARCINOGENICITY OF SUBSTANCE IN RODENT” (Chemicals Evaluation and Research Institute, priority 2007, published 2011)
